One assay concerns the target T1, BCL2A1/BID (Homo sapiens, UniProt Q16548).
T1 sequence (Q16548 whole entry): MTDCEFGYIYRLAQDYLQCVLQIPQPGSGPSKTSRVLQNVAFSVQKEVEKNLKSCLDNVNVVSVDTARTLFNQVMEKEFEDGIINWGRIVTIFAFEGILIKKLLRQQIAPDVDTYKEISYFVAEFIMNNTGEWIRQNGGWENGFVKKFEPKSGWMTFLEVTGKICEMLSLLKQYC
T1 sequence (P55957 whole entry): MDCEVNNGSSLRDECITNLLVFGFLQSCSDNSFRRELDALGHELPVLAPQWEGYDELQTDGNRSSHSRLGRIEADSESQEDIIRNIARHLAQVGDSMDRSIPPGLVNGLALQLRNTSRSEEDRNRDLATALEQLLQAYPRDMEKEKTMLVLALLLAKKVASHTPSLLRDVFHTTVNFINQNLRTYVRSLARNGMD
Description: Binding affinity to Bfl-1/Bid (unknown origin) incubated for 3 hrs by fluorescence polarization-based binding assay. It is filed as protein assay.

The target of assay [1] is T2, Induced myeloid leukemia cell differentiation protein Mcl-1/BH3-interacting domain death agonist (Homo sapiens, UniProt Q07820). Nature of the assay: Binding affinity to Mcl-1/Bid (unknown origin) incubated for 3 hrs by fluorescence polarization-based binding assay. It is filed as protein assay.
T2 sequence (Q07820 whole entry, one chain of several, the tested form may be a part): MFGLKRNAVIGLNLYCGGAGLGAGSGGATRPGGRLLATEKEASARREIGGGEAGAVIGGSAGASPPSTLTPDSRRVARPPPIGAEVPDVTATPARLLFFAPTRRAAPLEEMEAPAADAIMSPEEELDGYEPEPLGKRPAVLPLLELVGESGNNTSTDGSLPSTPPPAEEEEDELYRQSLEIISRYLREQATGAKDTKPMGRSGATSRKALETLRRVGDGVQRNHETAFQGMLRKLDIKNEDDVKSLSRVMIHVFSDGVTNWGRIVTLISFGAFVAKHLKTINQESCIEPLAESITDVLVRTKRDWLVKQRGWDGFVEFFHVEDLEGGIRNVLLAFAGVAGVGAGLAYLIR
The target in the next assay is MCL1-BAK1 complex (Homo sapiens, UniProt Q07820). Description: Inhibition of Bak/Mcl-1 (unknown origin) protein protein interaction by fluorescence polarization assay. It is filed as protein-complex assay.
Chain of MCL1-BAK1 complex (Q07820 whole entry): as the sequence (Q07820 whole entry, one chain of several, the tested form may be a part) above
Chain of MCL1-BAK1 complex (Q16611 whole entry, further chain): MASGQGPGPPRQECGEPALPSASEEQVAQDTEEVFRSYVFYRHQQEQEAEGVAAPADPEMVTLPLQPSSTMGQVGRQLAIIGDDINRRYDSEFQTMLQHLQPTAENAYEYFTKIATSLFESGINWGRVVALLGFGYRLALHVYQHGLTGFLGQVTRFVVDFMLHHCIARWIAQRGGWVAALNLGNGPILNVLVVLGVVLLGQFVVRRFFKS
Assay [2] is described as follows: Binding affinity to Bak/Bcl-xL (unknown origin) protein protein interaction by fluorescence polarization assay. Also noted: species or system Homo sapiens.
A short description of assay [3]: Inhibition of Bak/Bcl-xL (unknown origin) protein protein interaction by fluorescence polarization assay. Also noted: species or system Homo sapiens. A general note: Polarisation of emitted light reports the rotation of a fluorescent probe.
The target in assay [4] is T3, Bcl-xL/BAK (Homo sapiens, UniProt Q07817). Description: Inhibition of Bcl-xL/Bak (unknown origin) by fluorescence polarization assay. It is filed as protein assay.
T3 sequence (Q07817 whole entry): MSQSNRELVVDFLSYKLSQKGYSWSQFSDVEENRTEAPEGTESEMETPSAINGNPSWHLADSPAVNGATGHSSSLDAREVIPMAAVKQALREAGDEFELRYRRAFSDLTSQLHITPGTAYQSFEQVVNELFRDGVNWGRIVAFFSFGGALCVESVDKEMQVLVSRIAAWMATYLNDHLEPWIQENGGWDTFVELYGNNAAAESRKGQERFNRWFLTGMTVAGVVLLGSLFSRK
T3 sequence (Q16611 whole entry, further chain): as the sequence (Q16611 whole entry, further chain) above
Assay [5] concerns the target Induced myeloid leukemia cell differentiation protein Mcl-1/Bcl-2-like protein 11 (Homo sapiens, UniProt Q07820). Description: Inhibition of Mcl-1/Bim (unknown origin) by fluorescence polarisation assay. It is filed as protein assay.
For assay [6], the target named is T2, Induced myeloid leukemia cell differentiation protein Mcl-1/BH3-interacting domain death agonist. Nature of the assay: Binding affinity to human N-terminal 8xHis tagged Mcl-1/5-FAM-tagged Bid (unknown origin) assessed as inhibition constant by fluorescence polarization assay. It is filed as protein assay.
The target in assay [7] is Bcl-xL/Bcl-2-like protein 11 (Homo sapiens, UniProt Q07817). Description: Binding affinity to GST-tagged Bcl-xL/5-FAM-tagged Bim (unknown origin) assessed as inhibition constant by fluorescence polarization assay. It is filed as protein assay.
Chain of Bcl-xL/Bcl-2-like protein 11 (Q07817 whole entry, the tested form may be a part): as the sequence (Q07817 whole entry) above
Chain of Bcl-xL/Bcl-2-like protein 11 (O43521 whole entry, further chain, the tested form may be a part): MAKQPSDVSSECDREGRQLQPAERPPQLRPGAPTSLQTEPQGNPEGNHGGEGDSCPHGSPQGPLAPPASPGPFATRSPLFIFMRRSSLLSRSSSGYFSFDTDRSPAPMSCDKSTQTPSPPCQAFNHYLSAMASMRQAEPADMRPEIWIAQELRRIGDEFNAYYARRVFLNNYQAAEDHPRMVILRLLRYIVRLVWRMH
The target of another assay is BCL2/BID (Homo sapiens, UniProt P10415). Description: Binding affinity to human Bcl-2 (29 to 44 residues)/5-FAM-tagged Bid (unknown origin) assessed as inhibition constant by fluorescence polarization assay. It is filed as protein assay.
Chain of BCL2/BID (P10415 whole entry, one chain of several, the tested form may be a part): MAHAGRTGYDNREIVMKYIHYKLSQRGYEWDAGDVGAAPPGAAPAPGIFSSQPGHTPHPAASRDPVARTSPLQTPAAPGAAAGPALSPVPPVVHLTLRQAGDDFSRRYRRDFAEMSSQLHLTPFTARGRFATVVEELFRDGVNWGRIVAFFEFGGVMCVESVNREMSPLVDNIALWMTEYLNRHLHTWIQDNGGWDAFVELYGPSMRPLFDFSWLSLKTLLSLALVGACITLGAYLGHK
Assay [8] concerns the target T2, Induced myeloid leukemia cell differentiation protein Mcl-1/BH3-interacting domain death agonist. Description: Inhibition of Mcl-1/FITC-labelled Bid (unknown origin) protein protein interaction incubated for 20 to 60 mins by fluorescence polarisation binding assay.
Assay [9] in a line: Binding affinity to mouse Mcl-1/Bak (unkown origin) incubated for 1 hr by fluorescence polarization assay.
Assay [10] deals with T3, Bcl-xL/BAK. Description: Binding affinity to human Bcl-xL/Bak (unkown origin) incubated for 1 hr by fluorescence polarization assay. It is filed as protein assay.

pIC50, pKi: −log10 of the molar value.

As usually defined, the pKi is the negative decadic logarithm of the Ki, by convention in mol/L. One may read the pIC50 as the negative decadic logarithm of the IC50, by convention in mol/L.

Chain of Induced myeloid leukemia cell differentiation protein Mcl-1/Bcl-2-like protein 11 (Q07820 whole entry, the tested form may be a part): as the sequence (Q07820 whole entry, one chain of several, the tested form may be a part) above
Chain of Induced myeloid leukemia cell differentiation protein Mcl-1/Bcl-2-like protein 11 (O43521 whole entry, further chain, the tested form may be a part): as the sequence (O43521 whole entry, further chain, the tested form may be a part) above

For `O=C(CSc1nnc(-c2ccco2)c(-c2ccco2)n1)Nc1ccccc1`, the figures for the pKi (on BCL2A1/BID; in assay [1]) were 5.31 and 5.49, respectively.
On to `CC(C)Oc1cc(C(=O)Nc2ccc(C(=O)Nc3ccc(C(=O)O)cc3OC(C)C)nc2OC(C)C)ccc1N`, for which the pIC50 against MCL1-BAK1 complex was 4.99; in [3], 6.40. The pKi in assay [2] was 6.75.
As to `CC(C)Cc1cc(-c2ccc(-c3ccc(OCC(=O)O)cc3CC(C)C)cc2Cc2ccccc2)ccc1OCCC(=O)O`, the pIC50 against Bcl-xL/BAK [4] is 5.82; in assay [5], 5.31.
Consider `O=C(Nc1ccccc1)C1=CN=c2s/c(=C\c3cn(Cc4ccccc4F)c4ccccc34)c(=O)n2C1c1ccc(F)cc1` (stereo not drawn), for which the pKi in assay [6] is 5.98; in [7] it was 5.79; at BCL2/BID, 5.57.
`Cc1ccc(S(=O)(=O)/N=C2\C=C(Sc3nc[nH]n3)C(=O)c3ccccc32)cc1` gave a pIC50 in [8] of 6.35.
On to `CC1=C[C@@H](/C=C(\C)c2ccc(C(=O)O)cc2)[C@]2(C(=O)O)C=C[C@@H](CCOC(=O)c3ccc(Oc4ccccc4)cc3)C[C@@H]2C1`, for which the pKi in assay [9] was 6.30; on Bcl-xL/BAK [10] it was 6.15.

The values are drawn from ChEMBL document CHEMBL5113375, “Development of Mcl-1 inhibitors for cancer therapy” (Eur J Med Chem, 2021).
